Laboratory results published in patent US20240043427A1 (Gilead Sciences, Inc., priority 2020, published 2024).

The compounds below were run against CD73 (Homo sapiens (Human), UniProt P21589). Settings: 1 mM NaH2PO4 in enzyme buffer, CD73 0.3 nM, AMP 15 uM.
Sequence of CD73 (P21589 27-574): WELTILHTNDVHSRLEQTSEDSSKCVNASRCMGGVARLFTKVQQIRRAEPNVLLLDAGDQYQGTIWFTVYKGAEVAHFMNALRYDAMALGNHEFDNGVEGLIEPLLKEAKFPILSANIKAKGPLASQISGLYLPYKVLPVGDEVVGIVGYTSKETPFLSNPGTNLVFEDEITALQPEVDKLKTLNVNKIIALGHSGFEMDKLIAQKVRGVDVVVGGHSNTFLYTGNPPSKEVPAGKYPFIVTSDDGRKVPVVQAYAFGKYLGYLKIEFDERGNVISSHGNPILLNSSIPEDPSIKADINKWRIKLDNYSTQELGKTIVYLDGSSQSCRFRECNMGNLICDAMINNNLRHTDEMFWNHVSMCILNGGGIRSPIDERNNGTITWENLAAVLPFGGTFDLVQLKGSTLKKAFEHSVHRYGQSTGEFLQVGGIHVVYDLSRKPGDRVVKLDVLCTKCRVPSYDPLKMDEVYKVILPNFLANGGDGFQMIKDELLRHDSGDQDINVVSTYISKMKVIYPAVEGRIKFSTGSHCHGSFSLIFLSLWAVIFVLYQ
Assay type: biochemical
Compound O=C(c1ccc([C@H]2C[C@@H]2c2cc(-c3c[nH]c(=O)[nH]c3=O)nn3ccnc23)cc1)N1C[C@@H](F)[C@H](F)C1 (racemic) [Example 299, 5-(8-((1S,2S)-2-(4-((3R,4R)-3,4-difluoropyrrolidine-1-carbonyl)phenyl)cyclopropyl)imidazo[1,2-b]pyridazin-6-yl)pyrimidine-2,4(1H,3H)-dione] has an IC50 of 7.85 nM.
O=C(c1cccc([C@H]2C[C@@H]2c2cc(-c3c[nH]c(=O)[nH]c3=O)nn3ccnc23)c1)N1C[C@@H](F)[C@H](F)C1 (racemic) [Example 300, 5-(8-((1S,2S)-2-(3-((3R,4R)-3,4-difluoropyrrolidine-1-carbonyl)phenyl)cyclopropyl)imidazo[1,2-b]pyridazin-6-yl)pyrimidine-2,4(1H,3H)-dione] gave an IC50 of 1.8 nM.
O=C(c1ccc([C@H]2C[C@@H]2c2cc(-c3c[nH]c(=O)[nH]c3=O)nn3ccnc23)cc1)N1C[C@@H](F)[C@@H](F)C1 (racemic) [Example 301, 5-(8-((1S,2S)-2-(4-((3S,4R)-3,4-difluoropyrrolidine-1-carbonyl)phenyl)cyclopropyl)imidazo[1,2-b]pyridazin-6-yl)pyrimidine-2,4(1H,3H)-dione] showed an IC50 of 4.45 nM.
Compound O=C(c1cccc([C@H]2C[C@@H]2c2cc(-c3c[nH]c(=O)[nH]c3=O)nn3ccnc23)c1)N1C[C@@H](F)[C@@H](F)C1 (racemic) [Example 302, 5-(8-((1S,2S)-2-(3-((3S,4R)-3,4-difluoropyrrolidine-1-carbonyl)phenyl)cyclopropyl)imidazo[1,2-b]pyridazin-6-yl)pyrimidine-2,4(1H,3H)-dione] has an IC50 of 3.08 nM.
For O=C(c1ccc([C@H]2C[C@@H]2c2cc(-c3c[nH]c(=O)[nH]c3=O)nn3ccnc23)cc1)N1CC(F)(F)C(F)(F)C1 (racemic) [Example 303, 5-(8-((1S,2S)-2-(4-(3,3,4,4-tetrafluoropyrrolidine-1-carbonyl)phenyl)cyclopropyl)imidazo[1,2-b]pyridazin-6-yl)pyrimidine-2,4(1H,3H)-dione], the IC50 was 7.74 nM.
Work on O=C(c1cccc([C@H]2C[C@@H]2c2cc(-c3c[nH]c(=O)[nH]c3=O)nn3ccnc23)c1)N1CC(F)(F)C(F)(F)C1 (racemic) [Example 304, 5-(8-((1S,2S)-2-(3-(3,3,4,4-tetrafluoropyrrolidine-1-carbonyl)phenyl)cyclopropyl)imidazo[1,2-b]pyridazin-6-yl)pyrimidine-2,4(1H,3H)-dione] yielded an IC50 of 3.59 nM.
O=C(c1ccc([C@H]2C[C@@H]2c2cc(-c3c[nH]c(=O)[nH]c3=O)nn3ccnc23)cc1)N1CCC(F)(F)C1 (racemic) [Example 305, 5-(8-((1S,2S)-2-(4-(3,3-difluoropyrrolidine-1-carbonyl)phenyl)cyclopropyl)imidazo[1,2-b]pyridazin-6-yl)pyrimidine-2,4(1H,3H)-dione] gave an IC50 of 4.81 nM.
Work on O=C(c1cccc([C@H]2C[C@@H]2c2cc(-c3c[nH]c(=O)[nH]c3=O)nn3ccnc23)c1)N1CCC(F)(F)C1 (racemic) [Example 306, 5-(8-((1S,2S)-2-(3-(3,3-difluoropyrrolidine-1-carbonyl)phenyl)cyclopropyl)imidazo[1,2-b]pyridazin-6-yl)pyrimidine-2,4(1H,3H)-dione] yielded an IC50 of 1.67 nM.
With CC1(C)CCN(C(=O)c2ccc([C@H]3C[C@@H]3c3cc(-c4c[nH]c(=O)[nH]c4=O)nn4ccnc34)cc2)C1 (racemic) [Example 307, 5-(8-((1S,2S)-2-(4-(3,3-dimethylpyrrolidine-1-carbonyl)phenyl)cyclopropyl)imidazo[1,2-b]pyridazin-6-yl)pyrimidine-2,4(1H,3H)-dione] the IC50 was 16.1 nM.
CC1(C)CCN(C(=O)c2cccc([C@H]3C[C@@H]3c3cc(-c4c[nH]c(=O)[nH]c4=O)nn4ccnc34)c2)C1 (racemic) [Example 308, 5-(8-((1S,2S)-2-(3-(3,3-dimethylpyrrolidine-1-carbonyl)phenyl)cyclopropyl)imidazo[1,2-b]pyridazin-6-yl)pyrimidine-2,4(1H,3H)-dione] was tested, and the IC50 was 5.47 nM.
O=c1[nH]cc(-c2cc([C@H]3C[C@@H]3c3ccccc3OC(F)(F)F)c3nccn3n2)c(=O)[nH]1 (racemic) [Example 309, 5-(8-((1S,2S)-2-(2-(trifluoromethoxy)phenyl)cyclopropyl)imidazo[1,2-b]pyridazin-6-yl)pyrimidine-2,4(1H,3H)-dione] was tested, and the IC50 was 42.3 nM.
N#Cc1cncc([C@H]2C[C@@H]2c2cc(-c3c[nH]c(=O)[nH]c3=O)nn3ccnc23)c1 (racemic) [Example 311, 5-((1S,2S)-2-(6-(2,4-dioxo-1,2,3,4-tetrahydropyrimidin-5-yl)imidazo[1,2-b]pyridazin-8-yl)cyclopropyl)nicotinonitrile] showed an IC50 of 4.72 nM.
With CNC(=O)c1ccc([C@H]2C[C@@H]2c2cc(-c3c[nH]c(=O)[nH]c3=O)nn3c(F)cnc23)cc1 (racemic) [Example 312, 4-((1S,2S)-2-(6-(2,4-dioxo-1,2,3,4-tetrahydropyrimidin-5-yl)-3-fluoroimidazo[1,2-b]pyridazin-8-yl)cyclopropyl)-N-methylbenzamide] the IC50 was 1.29 nM.
In the case of Cc1nc2cc([C@H]3C[C@@H]3c3cc(-c4c[nH]c(=O)[nH]c4=O)nn4ccnc34)ccc2s1 (racemic) [Example 321, 5-(8-((1S,2S)-2-(2-methylbenzo[d]thiazol-5-yl)cyclopropyl)imidazo[1,2-b]pyridazin-6-yl)pyrimidine-2,4(1H,3H)-dione], the IC50 is reported as 1.12 nM.
Cn1ncc2ccc([C@H]3C[C@@H]3c3cc(-c4c[nH]c(=O)[nH]c4=O)nn4ccnc34)cc21 (racemic) [Example 326, 5-(8-((1S,2S)-2-(1-methyl-1H-indazol-6-yl)cyclopropyl)imidazo[1,2-b]pyridazin-6-yl)pyrimidine-2,4(1H,3H)-dione] showed an IC50 of 0.91 nM.
Compound O=c1[nH]cc(-c2cc([C@H]3C[C@@H]3c3ccc(OC(F)(F)F)cc3)c3nccn3n2)c(=O)[nH]1 (racemic) [Example 359, 5-(8-((1S,2S)-2-(4-(trifluoromethoxy)phenyl)cyclopropyl)imidazo[1,2-b]pyridazin-6-yl)pyrimidine-2,4(1H,3H)-dione] has an IC50 of 1.74 nM.
O=c1[nH]cc(-c2cc([C@H]3C[C@@H]3c3ccc4c(c3)OC(F)(F)O4)c3nccn3n2)c(=O)[nH]1 (racemic) [Example 360, 5-(8-((1S,2S)-2-(2,2-difluorobenzo[d][1,3]dioxol-5-yl)cyclopropyl)imidazo[1,2-b]pyridazin-6-yl)pyrimidine-2,4(1H,3H)-dione] showed an IC50 of 0.92 nM.
Compound O=c1[nH]cc(-c2cc([C@H]3C[C@@H]3c3ccc(OCC(F)(F)F)cn3)c3nccn3n2)c(=O)[nH]1 (racemic) [Example 363, 5-(8-((1S,2S)-2-(5-(2,2,2-trifluoroethoxy)pyridin-2-yl)cyclopropyl)imidazo[1,2-b]pyridazin-6-yl)pyrimidine-2,4(1H,3H)-dione] has an IC50 of 2 nM.
Work on O=c1[nH]cc(-c2cc([C@H]3C[C@@H]3c3ncc(C(F)(F)F)s3)c3nccn3n2)c(=O)[nH]1 (racemic) [Example 364, 5-(8-((1S,2S)-2-(5-(trifluoromethyl)thiazol-2-yl)cyclopropyl)imidazo[1,2-b]pyridazin-6-yl)pyrimidine-2,4(1H,3H)-dione] yielded an IC50 of 7.17 nM.
O=c1[nH]cc(-c2cc([C@H]3C[C@@H]3c3cnn(C(F)(F)F)c3)c3nccn3n2)c(=O)[nH]1 (racemic) [Example 366, 5-(8-((1S,2S)-2-(1-(trifluoromethyl)-1H-pyrazol-4-yl)cyclopropyl)imidazo[1,2-b]pyridazin-6-yl)pyrimidine-2,4(1H,3H)-dione] was tested, and the IC50 was 6.6 nM.
Work on O=c1[nH]cc(-c2cc([C@H]3C[C@@H]3c3cnn(C(F)F)c3)c3nccn3n2)c(=O)[nH]1 (racemic) [Example 368, 5-(8-((1S,2S)-2-(1-(difluoromethyl)-1H-pyrazol-4-yl)cyclopropyl)imidazo[1,2-b]pyridazin-6-yl)pyrimidine-2,4(1H,3H)-dione] yielded an IC50 of 3.73 nM.
Work on O=c1[nH]cc(-c2cc([C@H]3C[C@@H]3c3ccn(C(F)F)n3)c3nccn3n2)c(=O)[nH]1 (racemic) [Example 369, 5-(8-((1S,2S)-2-(1-(difluoromethyl)-1H-pyrazol-3-yl)cyclopropyl)imidazo[1,2-b]pyridazin-6-yl)pyrimidine-2,4(1H,3H)-dione] yielded an IC50 of 21.5 nM.
For O=c1[nH]cc(-c2cc([C@H]3C[C@@H]3c3cnn(C(F)F)c3)c3ncc(F)n3n2)c(=O)[nH]1 (racemic) [Example 370, 5-(8-((1S,2S)-2-(1-(difluoromethyl)-1H-pyrazol-4-yl)cyclopropyl)-3-fluoroimidazo[1,2-b]pyridazin-6-yl)pyrimidine-2,4(1H,3H)-dione], the IC50 was 4.02 nM.
For O=c1[nH]cc(-c2cc([C@H]3C[C@@H]3c3ccc(OC(F)(F)F)cn3)c3nccn3n2)c(=O)[nH]1 (racemic) [Example 372, 5-(8-((1S,2S)-2-(5-(trifluoromethoxy)pyridin-2-yl)cyclopropyl)imidazo[1,2-b]pyridazin-6-yl)pyrimidine-2,4(1H,3H)-dione], the IC50 was 3.4 nM.
In the case of O=c1[nH]cc(-c2cc([C@H]3C[C@@H]3c3ccc(OC(F)(F)F)cn3)c3ncc(F)n3n2)c(=O)[nH]1 (racemic) [Example 374, 5-(3-fluoro-8-((1S,2S)-2-(5-(trifluoromethoxy)pyridin-2-yl)cyclopropyl)imidazo[1,2-b]pyridazin-6-yl)pyrimidine-2,4(1H,3H)-dione], the IC50 is reported as 4.1 nM.
For O=c1[nH]cc(-c2cc([C@H]3C[C@@H]3c3ccc(OC(F)(F)F)nc3)c3nccn3n2)c(=O)[nH]1 (racemic) [Example 376, 5-(8-((1S,2S)-2-(6-(trifluoromethoxy)pyridin-3-yl)cyclopropyl)imidazo[1,2-b]pyridazin-6-yl)pyrimidine-2,4(1H,3H)-dione], the IC50 was 8.07 nM.
With O=c1[nH]cc(-c2cc([C@H]3C[C@@H]3c3ncc(C(F)(F)F)cn3)c3nccn3n2)c(=O)[nH]1 (racemic) [Example 377, 5-(8-((1S,2S)-2-(5-(trifluoromethyl)pyrimidin-2-yl)cyclopropyl)imidazo[1,2-b]pyridazin-6-yl)pyrimidine-2,4(1H,3H)-dione] the IC50 was 7.66 nM.
O=c1[nH]cc(-c2cc([C@H]3C[C@@H]3c3ncc(C(F)(F)F)cn3)c3ncc(F)n3n2)c(=O)[nH]1 (racemic) [Example 378, 5-(3-fluoro-8-((1S,2S)-2-(5-(trifluoromethyl)pyrimidin-2-yl)cyclopropyl)imidazo[1,2-b]pyridazin-6-yl)pyrimidine-2,4(1H,3H)-dione] was tested, and the IC50 was 6.45 nM.
